Reference: patent US20090247589A1, “Monocarboxylates for modifying macrophage function” (The Brigham and Women's Hospital, Inc., priority 2006, published 2009)

Key:
RAW 264.7 cells [1] = assay: Proinflammatory cytokine production by RAW 264.7 cells stimulated with IFN-γ plus uric acid; format: cell-based, murine
RAW 264.7 cells [2] = conditions: LPS-stimulated RAW 264.7 cells; concomitant administration
cardiac graft = conditions: continuous infusion by osmotic minipumps for 4 weeks; 60-80 μmol/kg/day; outliers excluded
Procedure: (§1) The dose of nicotinic acid was 60-80 μmol/kg/day, corresponding to 500-1000 mg of nicotinic acid in a 70 kg human (depending on bioavailability).

RAW 264.7 cells [3] = conditions: MTT assay
Procedure: as §1

SMILES	abrogation of uric acid + IFN-γ stimulated production of proinflammatory cytokines such as TNF-α (RAW 264.7 cells [1]; concomitant administration)	production of IL-6 (RAW 264.7 cells [2])	production of TNF-α (RAW 264.7 cells [2])	graft condition (histology) compared to saline-treated controls (cardiac graft)	effect on cell proliferation (RAW 264.7 cells [3])	production of proinflammatory cytokines such as TNF-α (stimulating effect) (RAW 264.7 cells [1]; uric acid together with other macrophage stimulators such as IFN-γ)
O=C(O)c1cccnc1 [nicotinic acid]	largely abrogated	significantly reduced	significantly reduced	near normal grafts	nor nicotinic acid have any significant effect	
O=c1[nH]c(=O)c2[nH]c(=O)[nH]c2[nH]1 [uric acid]						synergistically, further stimulating production
